Measurements as given in patent US20120035244A1, “PARP1 TARGETED THERAPY” (THE REGENTS OF THE UNIVERSITY OF MICHIGAN, priority 2010, published 2012).
Entries after “also recorded” stand apart in the source; their conditions may differ.

Experiments:
[1] = tested on: ERG target genes in VCaP cells; experiment: qPCR analysis of ERG-target genes in VCaP cells; format: cell-based, human; settings: siRNA or drug for 48 hours
Experimental: Total RNA was isolated from VCAP, RWPE or PrEC cells that were transfected with siRNA as indicated (Qiagen). Quantitative PCR (QPCR) was performed using SYBR Green dye on an Applied Biosystems 7300 Real Time PCR system (Applied Biosystems, Foster City, Calif.) as described (Tomlins, S. A., et al. Science (New York, N.Y. 310, 644-648 (2005)). Briefly, 1 μg of total RNA was reverse transcribed into cDNA using SuperScript 111 (Invitrogen, Carlsbad, Calif.) in the presence of random primers (Invitrogen). All reactions were performed in triplicate with SYBR Green Master Mix (Applied Biosystems) plus 25 ng of both the forward and reverse primer according to the manufacturer's recommended thermocycling conditions, and then subjected to melt curve analysis. […] The relative quantity of the target gene was completed for each sample using the ΔΔCt method by the comparing mean Ct of the gene to the average Ct of the housekeeping gene, β-Actin8. […] The primer sequences for the transcript analyzed were either previously described (Tomlins et al., 2008, supra) or are provided in Table 4.
Total RNA was isolated from VCAP, RWPE or PrEC cells that were transfected with siRNA as indicated (Qiagen). […] The relative quantity of the target gene was completed for each sample using the ΔΔCt method by the comparing mean Ct of the gene to the average Ct of the housekeeping gene, β-Actin8. […]

[2] = tested on: RWPE cells transduced with ERG adenovirus; experiment: Basement membrane matrix invasion assay, RWPE cells transduced with ERG adenovirus; format: cell-based, human; settings: P<0.01 for DNA-PKcs siRNA or NU7026>10 μM, P<0.05 for all PARP1 siRNA, NU1025 or Olaparib treatments
Experimental: (§1) For invasion assays, the prostate cell lines RWPE-1 and VCaP were transfected with siRNA or negative controls as indicated. NU7026 (Sigma) and NU1025 (Calbiochem) were dissolved in DMSO and stored at −20° C. in the dark. Forty-eight hours post-transfection/transduction, cells were seeded onto the basement membrane matrix (EC matrix, Chemicon, Temecula, Calif.) in the chamber insert with […] pores of a 24-well culture plate in serum free media. Cells were attracted to the lower chamber by the addition of complete media as a chemoattractant. After 48 hours incubation at 37° C. with 5% CO2, the non-invading cells and EC matrix were gently removed with a cotton swab. Invasive cells, which were located on the lower side of the membrane, were stained with crystal violet, air dried and photographed. To quantify the relative number of invaded cells, colorimetric assays were performed by treating the inserts with 150 μl of 10% acetic acid (v/v) and measuring absorbance of each condition at 560 nm using a spectrophotometer (GE Healthcare).

[3] = tested on: VCaP cells; experiment: Basement membrane matrix invasion assay, VCaP cells; format: cell-based, human; settings: P<0.01 for DNA-PKcs siRNA or NU7026>10 μM; P<0.05 for all PARP1 siRNA, NU1025 or Olaparib treatments
Experimental: as §1

[4] = Total cell number after 72 hours (data not shown); format: cell-based
[5] = tested on: VCaP xenografts; experiment: VCaP mouse xenograft model; format: in vivo, mice; settings: VCaP; Olaparib 40 mg/kg/day IP (P=0.001); NU7026 25 mg/kg/day IP (p=0.004)
From the text: (§2) Olaparib was obtained from Axon Medchem (Groningen, The Netherlands).

[6] = tested on: PC3 xenografts; experiment: PC3 (PC3-control) mouse xenograft model; format: in vivo, mice; settings: PC3 / PC3-control (ETS negative); Olaparib 40 mg/kg IP, NU7026 25 mg/kg IP
From the text: as §2

[7] = tested on: PC3-LACZ xenografts; experiment: PC3-LACZ mouse xenograft model; format: in vivo, mice; settings: PC3-LACZ (ETS negative)
From the text: as §2

[8] = tested on: ERG-target gene expression; experiment: qPCR of ERG-target genes in staged PC3-ERG tumors; format: in vivo, mice; settings: 4 hours, 40 mg/kg Olaparib or 25 mg/kg NU7026
[9] = tested on: PC3-ERG xenografts; settings: mouse, in vivo
Experimental: Four weeks old male Balb C nu/nu mice were purchased from Charles River, Inc. (Charles River Laboratory, Wilmington, Mass.). VCaP (2×10^6 cells), PC3-luciferase-control (1×10^5 cells) or PC3-luciferase-ERG (1×10^5 cells) stable cells were resuspended in 100 μl of saline with 50% Matrigel (BD Biosciences, Becton Drive, NJ) and were implanted subcutaneously into the left flank region of the mice. Mice were anesthetized using a cocktail of xylazine (80-120 mg/kg, IP) and ketamine (10 mg/kg, IP) for chemical restraint before tumor implantation. All tumors were staged for three week before starting the drug treatment. After week 3 for VCaP cells or after 48 hours for PC3 cells, mice (10 per treatment group) were treated with NU7026 (25 mg/kg, IP), Olaparib (40 mg/kg, IP) daily five times a week. Olaparib was obtained from Axon Medchem (Groningen, The Netherlands). Growth in tumor volume was recorded weekly by using digital calipers and tumor volumes were calculated using the formula (π/6) (L×W2), where L=length of tumor and W=width. Loss of body weight during the course of the study was also monitored weekly.

[10] = tested on: VCaP and PC3 xenograft tumors; experiment: Ki67 and CD31 immunohistochemistry on tissue microarray of VCaP and PC3 xenograft tumors; settings: pairwise t-test
Experimental: Changes in both relative cell proliferation of the tumors (Ki67) and microvessel density (CD31) were assessed using a tissue microarray made from formalin-fixed, paraffin-embedded tumors from all xenograft tumors analyzed in the VCaP and PC3 studies.

O=c1cc(N2CCOCC2)oc2c1ccc1ccccc12 [NU7026]
expression of the ERG target genes (qPCR) [1]: confirmed gene expression changes as predicted by the gene expression arrays; also recorded: altered expression of the ERG target genes | ERG-driven cell invasion [2]: attenuated invasion | VCaP cell invasion [3]: attenuated invasion | total cell number [4]: did not alter total cell number | tumor growth relative to the vehicle control [5]: significant reduction of tumor growth | xenograft growth [6]: did not block the growth; also recorded: did not significantly inhibit xenograft growth | xenograft growth [7]: did not significantly inhibit xenograft growth | ERG-target gene expression in tumors (qPCR) [8]: loss of ERG-target gene expression | xenograft growth [9]: unable to reduce the xenograft growth rate | average number of Ki67 positive cells [10]: Neither NU7026 nor Olaparib consistently led to a significant change | microvessel density (CD31) [10]: Neither NU7026 nor Olaparib consistently led to a significant change
